The numbers were not newly measured in patent US8092783B2, “Gadolinium containing prussian blue nanoparticles as nontoxic MRI contrast agents having high relaxivity” (Kent State University, priority 2009, dated 2012), which cites them from elsewhere.

For the series the following is noted: magnetic field strength 1.5 Tesla; commercial or literature agents.

As to `CNC[C@H](O)[C@@H](O)[C@H](O)[C@H](O)CO.CNC[C@H](O)[C@@H](O)[C@H](O)[C@H](O)CO.O=C([O-])CN(CCN(CC(=O)[O-])CC(=O)O)CCN(CC(=O)[O-])CC(=O)O.[Gd+3]` [Magnevist@], the “relaxivity r1” value was 4.1 mM⁻¹ s⁻¹.
